Assay results as given in US20080081829A1, “Medical Device Including an Anesthetic and Method of Preparation Thereof” (MED Institute, Inc, priority 2006, published 2008).
Entries after “also recorded” stand apart in the source; their conditions may differ. Where a name gives a salt, the structure may show the parent alone. Read-outs that look alike come from different tables or passages of the source.

Tests used:
[1] = Elution of bupivacaine from spray-coated ureteral stents in aqueous buffers of different pH; type: physicochemical
Source text: (§1) An approximately 0.6% solution of bupivacaine having a tertiary amine in the non-ionic form (formula (2a) above) in dichloromethane was loaded into a syringe mounted onto a syringe pump and connected to a tube that carried the solution to an ultrasonic nozzle (Model 06-05108—Sono-Tek Co., Poughkeepsie, N.Y. 12547.) A nozzle was 6 mm diameter, 11 mm long and used with a nominal frequency of 120 kHz. Air was purged from the solution line and the spray nozzle primed with the solution. The coating chamber was purged with nitrogen to attain an oxygen concentration below 100 ppm. The solution was sprayed onto ureteral stent substrates 20 to 280 mm long (polyurethane double pigtail soflex ureteral stent, Cook Incorporated (Bloomington, Ind.)). A smooth, uniform coating was observed. Control stents were coated with the same concentration of Bupivacaine.HCl using the above coating method.
The stents were placed in solutions at different pH values to test the elution of bupivacaine over time. […] Acetic acid/sodium acetate was used for the pH 4.5 buffer, 0.1 M phosphate-buffered solution (PBS) for the pH 7.0 buffer, and sodium carbonate for the pH 9.5 buffer.

[2] = Exposure of coated ureteral stent to water / aqueous environment (photomicrographs of coating); type: physicochemical
Source text: as §1
(§2) FIGS. 4-7 depict photomicrographs of the coatings showing the uniformity and tenacity of the non-ionic coatings, in contrast to the water-soluble ionic coatings. […] FIG. 5 depicts a relatively rough, crystalline coating 91 of Bupivacaine.HCl on a ureteral stent 90, on the left, and the same stent after a one-minute ex vivo exposure to a pig ureter.
(§3) FIG. 7 then depicts the same type of stent 110 with a coating 114 of the non-ionic form of bupivacaine after 24 hours in an ex vivo test with a pig ureter.

[3] = Ex vivo exposure of coated ureteral stent to a pig ureter
Source text: as §1, §2, §3

[4] = cited from earlier work
[5] = Table 1, anesthetics having protonated and unprotonated forms; cited from earlier work

Compound	time of release/elution from coated stent ([1]; control stents coated with ionic form, aqueous solutions, same conditions, hydrochloride)	state of stent coating after dipping in water ([2]; dipped in water for one minute (FIG. 4))	state of stent coating after ex vivo exposure to pig ureter ([3]; one-minute ex vivo exposure (FIG. 5))	solubility in water (words) ([4]; hydrochloride)	solubility in water (words) ([4]; listed as bupivacaine hydrochloride, hydrochloride)	period over which release from ureteral stent occurs ([1]; coated polyurethane ureteral stent, solutions of pH 4.5, 7.0 and 9.5)	dependence of release rate on pH of the eluting solution ([1]; pH 4.5, 7.0, 9.5)	state of stent coating after exposure to aqueous environment ([2]; aqueous environment for several days (FIG. 6))	state of stent coating after ex vivo test with pig ureter ([3]; 24 hours ex vivo (FIG. 7))	pKa [5]	solubility ([4]; base or non-ionic form)	solubility in water (words) [4]	solubility in water (words) ([4]; listed as Bupivacaine)
CCCCN1CCCCC1C(=O)Nc1c(C)cccc1C (centres unmarked) [Bupivacaine.HCl, 1-butyl-N-(2,6-dimethylphenyl)-2-piperidinecarboxamide hydrochloride]	within a matter of minutes; also recorded: eluted fully within minutes	coating is substantially dissolved	Most of the coating 92 has been dissolved	water-soluble	soluble in water								
CCCCN1CCCCC1C(=O)Nc1c(C)cccc1C (centres unmarked) [bupivacaine]						about 12 days	approximately the same rate	virtually no effect on the coating	most of the non-ionic form of the bupivacaine coating remains on the stent	8.09	about 0.2 mg/mL	only very slightly soluble in water	sparingly soluble in water
CCCN1CCCC[C@H]1C(=O)Nc1c(C)cccc1C [ropivacaine]										8.16			
